Source: patent US20260085067A1, “CYCLIC SULFONAMIDE RIBONUCLEOTIDE REDUCTASE (RNR) INHIBITORS AND USES THEREOF” (Boundless Bio, Inc., priority 2022, published 2026)

Experiments:
[1] = target: T1, RNR (RNR1:RNR2 1:1) (Homo sapiens, UniProt P23921); assay: RNR enzyme activity, rapid-fire mass spectrometry (RF/MS) assay; format: biochemical; conditions: [RNR] 50 nM, 1:1 RNR1:RNR2; CDP 5 μM; ATP 1 mM; 37° C., 45 min; compounds screened up to 50 μM
T1 sequence (P23921 1-792): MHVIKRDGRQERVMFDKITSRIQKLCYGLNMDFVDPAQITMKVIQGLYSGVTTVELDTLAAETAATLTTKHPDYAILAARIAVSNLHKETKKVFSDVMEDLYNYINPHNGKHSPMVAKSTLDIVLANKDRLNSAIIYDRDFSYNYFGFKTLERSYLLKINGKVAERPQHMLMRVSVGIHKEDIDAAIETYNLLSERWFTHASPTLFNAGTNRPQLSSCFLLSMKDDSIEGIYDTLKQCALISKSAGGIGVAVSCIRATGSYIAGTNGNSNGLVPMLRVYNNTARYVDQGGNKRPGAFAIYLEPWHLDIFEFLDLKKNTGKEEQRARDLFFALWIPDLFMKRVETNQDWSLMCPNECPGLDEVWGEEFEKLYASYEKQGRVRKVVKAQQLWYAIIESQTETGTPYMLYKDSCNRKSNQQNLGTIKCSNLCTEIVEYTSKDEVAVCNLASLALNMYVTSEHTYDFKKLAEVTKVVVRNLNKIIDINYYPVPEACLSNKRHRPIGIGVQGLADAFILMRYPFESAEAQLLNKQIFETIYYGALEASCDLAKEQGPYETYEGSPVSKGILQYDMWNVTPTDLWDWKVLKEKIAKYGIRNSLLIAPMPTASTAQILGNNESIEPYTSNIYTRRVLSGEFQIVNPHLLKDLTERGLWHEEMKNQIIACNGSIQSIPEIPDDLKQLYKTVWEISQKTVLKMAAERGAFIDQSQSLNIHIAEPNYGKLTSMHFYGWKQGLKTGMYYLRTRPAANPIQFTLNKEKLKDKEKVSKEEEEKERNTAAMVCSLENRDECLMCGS
Procedure, shortened: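 Human RNR (50 nM final, RNR1:RNR2 1:1) pre-incubated 15 min at room temperature, then reacted 45 min at 37 °C with 5 μM CDP and 1 mM ATP, no NADPH. Reaction quenched with 6% HCOOH; product quantified by rapid-fire mass spectrometry.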

[2] = test system: pCHK1 (S345) in Colo320 DM cells; assay: Alphalisa assay, detection of pCHK1 (S345) in Colo320 DM cells; format: cell-based, human; conditions: Homo sapiens, COLO 320DM, compound overnight (approximately 16 hours)
Procedure, shortened: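 Colo320 DM cells plated overnight, then exposed to compound for about 16 h at 37 °C (DMSO <0.5%). Cells lysed and phospho-CHK1 (S345) quantified by AlphaLisa SureFire with sequential 60 min acceptor and donor incubations at room temperature.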

Structure (SMILES)	IC50 [1] [µM]	IC50 [2] [µM]
Cc1ccc(F)c([C@@H](C)[C@@H](c2n[nH]c(=O)o2)N2CN(CCN3CCOCC3)c3cc(Cl)ccc3S2(=O)=O)c1C [Example 84, 5-((1S,2R)-1-(6-chloro-4-(2-morpholinoethyl)-1,1-dioxido-3,4-dihydro-2H-benzo[e][1,2,4]thiadiazin-2-yl)-2-(6-fluoro-2,3-dimethylphenyl)propyl)-1,3,4-oxadiazol-2 (3H)-one]	< 0.02	≤ 1
Cc1ccc(F)c([C@@H](C)[C@@H](c2n[nH]c(=O)o2)N2CN([C@H]3CCN(C)C3)c3cc(Cl)ccc3S2(=O)=O)c1C [Example 86, 5-((1S,2R)-1-(6-chloro-4-((S)-1-methylpyrrolidin-3-yl)-1,1-dioxido-3,4-dihydro-2H-benzo[e][1,2,4]thiadiazin-2-yl)-2-(6-fluoro-2,3-dimethylphenyl)propyl)-1,3,4-oxadiazol-2 (3H)-one]	< 0.02	1 to 5
Cc1ccc(F)c([C@@H](C)[C@@H](c2n[nH]c(=O)o2)N2CN(C3CCOCC3)c3nc(Cl)ccc3S2(=O)=O)c1C [Example 87, 5-((1S,2R)-1-(6-chloro-1,1-dioxido-4-(tetrahydro-2H-pyran-4-yl)-3,4-dihydro-2H-pyrido[2,3-e][1,2,4]thiadiazin-2-yl)-2-(6-fluoro-2,3-dimethylphenyl)propyl)-1,3,4-oxadiazol-2 (3H)-one]	< 0.02	≤ 1
Cc1ccc(F)c([C@@H](C)[C@@H](c2n[nH]c(=O)o2)N2CN(CC(F)F)c3cc(Cl)ccc3S2(=O)=O)c1C [Example 88, 5-((1S,2R)-1-(6-chloro-4-(2,2-difluoroethyl)-1,1-dioxido-3,4-dihydro-2H-benzo[e][1,2,4]thiadiazin-2-yl)-2-(6-fluoro-2,3-dimethylphenyl)propyl)-1,3,4-oxadiazol-2 (3H)-one]	< 0.02	≤ 1
CC(=O)c1cc(Cl)cc2c1S(=O)(=O)N([C@H](c1n[nH]c(=O)o1)[C@H](C)c1c(F)ccc(C)c1C)CN2C1CC1 [Example 95, 5-((1S,2R)-1-(8-acetyl-6-chloro-4-cyclopropyl-1,1-dioxido-3,4-dihydro-2H-benzo[e][1,2,4]thiadiazin-2-yl)-2-(6-fluoro-2,3-dimethylphenyl)propyl)-1,3,4-oxadiazol-2 (3H)-one]	< 0.02	≤ 1
Cc1ccc(F)c([C@@H](C)[C@@H](c2n[nH]c(=O)o2)N2CN(C3CN(CC(F)(F)F)C3)c3cc(Cl)ccc3S2(=O)=O)c1C [Example 96, 5-((1S,2R)-1-(6-chloro-1,1-dioxido-4-(1-(2,2,2-trifluoroethyl)azetidin-3-yl)-3,4-dihydro-2H-benzo[e][1,2,4]thiadiazin-2-yl)-2-(6-fluoro-2,3-dimethylphenyl)propyl)-1,3,4-oxadiazol-2 (3H)-one]	< 0.02	≤ 1
Cc1ccc(F)c([C@@H](C)[C@@H](c2n[nH]c(=O)o2)N2CN([C@@H]3CCOC[C@H]3F)c3cc(Cl)ccc3S2(=O)=O)c1C [Example 97, 5-((1S,2R)-1-(6-chloro-4-((3S,4R)-3-fluorotetrahydro-2H-pyran-4-yl)-1,1-dioxido-3,4-dihydro-2H-benzo[e][1,2,4]thiadiazin-2-yl)-2-(6-fluoro-2,3-dimethylphenyl)propyl)-1,3,4-oxadiazol-2 (3H)-one]	< 0.02	≤ 1
COC(C)(C)CN1CN([C@H](c2n[nH]c(=O)o2)[C@H](C)c2c(F)ccc(C)c2C)S(=O)(=O)c2ccc(Cl)cc21 [Example 98, 5-((1S,2R)-1-(6-chloro-4-(2-methoxy-2-methylpropyl)-1,1-dioxido-3,4-dihydro-2H-benzo[e][1,2,4]thiadiazin-2-yl)-2-(6-fluoro-2,3-dimethylphenyl)propyl)-1,3,4-oxadiazol-2 (3H)-one]	< 0.02	≤ 1
Cc1ccc(F)c([C@@H](C)[C@@H](c2n[nH]c(=O)o2)N2CN([C@@H]3CCN(CC(F)(F)F)C3)c3cc(Cl)ccc3S2(=O)=O)c1C [Example 99, 5-((1S,2R)-1-(6-chloro-1,1-dioxido-4-((R)-1-(2,2,2-trifluoroethyl)pyrrolidin-3-yl)-3,4-dihydro-2H-benzo[e][1,2,4]thiadiazin-2-yl)-2-(6-fluoro-2,3-dimethylphenyl)propyl)-1,3,4-oxadiazol-2 (3H)-one]	0.02 to 0.1	≤ 1
Cc1ccc(F)c([C@@H](C)[C@@H](c2n[nH]c(=O)o2)N2CN(C3CC3)c3cc(Cl)cc(C(C)Cl)c3S2(=O)=O)c1C (stereo partly drawn) [Example 100, 5-((1S,2R)-1-(6-chloro-8-(1-chloroethyl)-4-cyclopropyl-1,1-dioxido-3,4-dihydro-2H-benzo[e][1,2,4]thiadiazin-2-yl)-2-(6-fluoro-2,3-dimethylphenyl)propyl)-1,3,4-oxadiazol-2 (3H)-one]	0.02 to 0.1	1 to 5
Cc1ccc(F)c([C@@H](C)[C@@H](c2n[nH]c(=O)o2)N2CN([C@H]3CCN(CC(F)(F)F)C3)c3cc(Cl)ccc3S2(=O)=O)c1C [Example 101, 5-((1S,2R)-1-(6-chloro-1,1-dioxido-4-((S)-1-(2,2,2-trifluoroethyl)pyrrolidin-3-yl)-3,4-dihydro-2H-benzo[e][1,2,4]thiadiazin-2-yl)-2-(6-fluoro-2,3-dimethylphenyl)propyl)-1,3,4-oxadiazol-2 (3H)-one]	0.02 to 0.1	1 to 5
CC(=O)c1cc(Cl)cc2c1S(=O)(=O)N([C@H](c1n[nH]c(=O)o1)[C@H](C)c1c(F)ccc(C)c1C)CO2 [Example 102, 5-((1S,2R)-1-(8-acetyl-6-chloro-1,1-dioxidobenzo[e][1,4,3]oxathiazin-2 (3H)-yl)-2-(6-fluoro-2,3-dimethylphenyl)propyl)-1,3,4-oxadiazol-2 (3H)-one]	< 0.02	≤ 1
CC(=O)c1cc(Cl)cc2c1S(=O)(=O)N([C@H](c1n[nH]c(=O)o1)[C@@H](C)c1c(F)ccc(C)c1C)CO2 [Example 103, 5-((1S,2S)-1-(8-acetyl-6-chloro-1,1-dioxidobenzo[e][1,4,3]oxathiazin-2 (3H)-yl)-2-(6-fluoro-2,3-dimethylphenyl)propyl)-1,3,4-oxadiazol-2 (3H)-one]	1 to 10	5 to 10
Cc1ccc(F)c([C@@H](C)[C@@H](c2n[nH]c(=O)o2)N2CN([C@@H]3CCN(CCF)C3)c3cc(Cl)ccc3S2(=O)=O)c1C [Example 104, 5-((1S,2R)-1-(6-chloro-4-((R)-1-(2-fluoroethyl)pyrrolidin-3-yl)-1,1-dioxido-3,4-dihydro-2H-benzo[e][1,2,4]thiadiazin-2-yl)-2-(6-fluoro-2,3-dimethylphenyl)propyl)-1,3,4-oxadiazol-2 (3H)-one]	< 0.02	≤ 1
Cc1ccc(F)c([C@@H](C)[C@@H](c2n[nH]c(=O)o2)N2CN(CCN3CCN(C)CC3)c3cc(Cl)ccc3S2(=O)=O)c1C [Example 105, 5-((1S,2R)-1-(6-chloro-4-(2-(4-methylpiperazin-1-yl)ethyl)-1,1-dioxido-3,4-dihydro-2H-benzo[e][1,2,4]thiadiazin-2-yl)-2-(6-fluoro-2,3-dimethylphenyl)propyl)-1,3,4-oxadiazol-2 (3H)-one]	< 0.02	1 to 5
